Patent publication US20170226139A1, “CRYSTALLINE SALTS OF (Z)-O-OCTADEC-9-EN-1-YL O,O-DIHYDROGEN PHOSPHOROTHIOATE” (priority 2013, published 2017)
In brackets after ≈: the same amount, converted by molar mass. Where two headings read alike, the source gives them in different places.

Columns and labels:
[1] = target: LPA2 receptors from the rat (Rattus norvegicus, UniProt A0ABK0LT65); experiment: Calcium-mobilization assay (FURA-2), rat LPA2; assay type: cell-based
Protocol: (§1) We investigated structure-activity relationships across species, LPAR subtypes and between Rx100 and two known process impurities encountered in manufacture: Rx103 (‘E’ isomer) and Rx200 (oleyl phosphate and impurity, which can be an Rx100 degradant along with oleyl alcohol). Rx100, Rx103, Rx200 and native LPA were investigated at different human LPAR subtypes. In addition, the activity of these compounds was evaluated at LPA2 receptors from the rhesus, rat and mouse species. Human LPA1/2/3 subtypes were transfected into mouse embryonic fibroblasts (MEF) or rat hepatoma cells (RH7777)—both of which are normally non-responsive or null to LPA. Human LPA4 was transfected into Chinese hamster ovary (CHO) cells and LPA5 into the B103 neuroblastoma cell line. […] The B103 rat neuroblastoma cell line is endogenously nonresponsive to LPA but expresses heterologous LPA5 receptors well. […] LPAR activation elicits a G-protein-mediated transient rise in intracellular calcium level that is proportional to the concentration of LPA applied. The intracellular calcium level was quantified by the calcium-selective fluorescent indicator FURA-2 (e.g., increased intracellular calcium surge=increased fluorescence).

Control CHO = experiment: Calcium-mobilization assay, untransfected Control CHO cells; assay type: cell-based, Chinese hamster; conditions: Cricetulus griseus, CHO
Protocol: as §1

Human LPA4 = target: T1, Human LPA4 (Homo sapiens, UniProt Q99677); experiment: Calcium-mobilization assay (FURA-2), human LPA4 in CHO cells; assay type: cell-based
T1 construct: expressed in transfected cells; host or cells: CHO
Protocol: as §1

Male Sprague-Dawley rats [2] = experiment: Respiratory system safety pharmacology (plethysmograph); assay type: in vivo
Protocol: Male Sprague-Dawley rats (n=6/group) were administered Rx100.lysine as a single oral (gavage) doses of 0 (10 mM histidine in sterile water for injection, USP), 1.81, 6.33, and 18.1 mg/kg and monitored for respiratory function. Animals were placed in a plesthymograph and monitored at pre-dose and for consecutive 30 minute averages beginning 30 minutes postdose through 6 hours postdose and again at 24 hours postdose. Parameters evaluated included tidal volume, respiratory rate and minute volume. […] It was concluded that there were no adverse effects on the respiratory system in rats at doses of 1.81 mg/kg.

[3] = Solubility by incremental addition method in water or simulated formulation solvent
Male Sprague-Dawley rats [4] = experiment: Gastrointestinal system safety pharmacology (charcoal transit, gastric emptying); assay type: in vivo
Protocol: Male Sprague-Dawley rats (n=6/group) were administered Rx100.lysine as a single oral (gavage) doses of 0 (10 mM histidine in sterile water for Injection, USP), 1.81, 6.33, and 18.1 mg/kg and monitored for gastrointestinal parameters of transit time and gastric emptying. A fifth group was treated with the positive control material morphine sulfate. Two hours after treatment, animals received an oral gavage dose of a charcoal suspension. Animals were then sacrificed 20 minutes. Parameters evaluated included gastrointestinal transit time and gastric emptying. […] No abnormal observations were recorded. […] It was concluded that there were no adverse effects on the gastrointestinal tract in rats at doses of 1.81 mg/kg (gastric emptying) or 6.33 mg/kg (transit time).

cynomolgus monkeys = experiment: Single-dose range-finding and 7-day repeat-dose toxicity in monkeys; assay type: in vivo
Protocol: In the first phase of the range-finding monkey study, one male and one female cynomolgus monkeys received single subcutaneous doses of Rx100.Lysine at 0.3, 1, 3, 10, 25 and 75 mg/kg of free acid. The vehicle for all doses was Sterile water for injection with 10 mM L-histidine. In the 7-day repeat-dose phase, two males and females were dosed subcutaneously at 10 mg/kg/day. Parameters evaluated included clinical signs, body weight, food consumption, and clinical and anatomic pathology. […] Animals were subsequently sacrificed. […] No effects on body weights were seen.

[5] = Solubility measurement by gravimetric method in various solvents; assay type: physicochemical; conditions: for solubility: thermodynamic from solid
Protocol: In addition, the Rx100 L-Lysate salt was further characterized under abbreviated polymorph evaluation. First, the solubility measurement by gravimetric method was performed. Briefly, excess amount of solid was slurried in various solvents at ambient conditions and elevated temperature (50° C.) for minimum of 24 hours. The slurry was centrifuged using a temperature controlled centrifuge and the supernatant was used for gravimetric method. Table 15 presents the solubility data measured using this gravimetric method in various solvents for the L-Lysine salt. In cases where the solvent dissolved all of the solid, the value is shown as “greater than”.

[6] = Short term (24 hour) slurry tests, XRPD of wet and dried solids; assay type: physicochemical; conditions: minimum 24 hours, 15 solvent systems, 25 and 50° C., wet and dried solids
Protocol: Second, short term slurry tests were performed. Rx100.L-Lysine salt was slurried for a minimum of 24 hours in 15 different solvent systems at two different temperatures (25 and 50° C.) in an attempt to provide information for crystallization experiments and design of polymorph screening experiments. A 48 position Chemglass reaction block was used for heating and stirring the slurries which were in 2 mL HPLC vials. After the due time, vials were centrifuged and the wet solids were used for X-ray diffraction. […]

[7] = male, Sprague-Dawley, rat, in vivo, oral, 140 min
[8] = abbreviated polymorph screening

T1 sequence (Q99677 whole entry): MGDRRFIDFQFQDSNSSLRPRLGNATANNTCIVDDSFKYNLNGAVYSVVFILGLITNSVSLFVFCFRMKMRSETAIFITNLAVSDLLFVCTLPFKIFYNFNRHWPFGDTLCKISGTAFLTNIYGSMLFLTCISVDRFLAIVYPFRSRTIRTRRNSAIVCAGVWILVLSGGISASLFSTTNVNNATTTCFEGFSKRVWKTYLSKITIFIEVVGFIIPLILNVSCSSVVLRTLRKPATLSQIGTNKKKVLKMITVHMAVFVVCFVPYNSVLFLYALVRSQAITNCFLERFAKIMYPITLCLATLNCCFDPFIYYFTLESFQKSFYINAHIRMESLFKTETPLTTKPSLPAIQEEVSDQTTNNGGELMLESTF
Chain of LPA2 receptors from the rat (A0ABK0LT65 1-348): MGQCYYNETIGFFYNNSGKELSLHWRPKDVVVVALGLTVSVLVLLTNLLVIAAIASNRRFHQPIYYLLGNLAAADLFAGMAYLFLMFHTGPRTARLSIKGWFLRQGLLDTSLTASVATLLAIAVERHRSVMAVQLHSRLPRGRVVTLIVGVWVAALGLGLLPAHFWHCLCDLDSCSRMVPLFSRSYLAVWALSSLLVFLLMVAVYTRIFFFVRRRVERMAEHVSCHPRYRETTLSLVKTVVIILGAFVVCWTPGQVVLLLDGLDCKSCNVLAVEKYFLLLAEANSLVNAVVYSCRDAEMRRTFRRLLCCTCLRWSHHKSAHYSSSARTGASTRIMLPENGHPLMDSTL

**Q.** With `CCCCCCCC/C=C\CCCCCCCCOP(O)(O)=S` [Rx100, (Z)—O-octadec-9-en-1-yl O,O-dihydrogen phosphorothioate] as the molecule, how does the EC50 [1] read?
**A.** 76 nM

**Q.** What about the Emax ([1]; read-out: Emax (% of LPA)) of the same molecule?
**A.** 100%

**Q.** And the EC50 (Control CHO)?
**A.** > 5000 nM

**Q.** What about the Emax (Control CHO; read-out: Emax (% of LPA)) of the same molecule?
**A.** 20%

**Q.** What about the EC50 (Human LPA4) of the same molecule?
**A.** > 5000 nM

**Q.** What about the Emax (Human LPA4; CHO, read-out: Emax (% of LPA)) of the same molecule?
**A.** 97%

**Q.** What does the source list for `CCCCCCCC/C=C\CCCCCCCCOP(O)(O)=S` [Rx100.L-Lysine, (Z)—O-octadec-9-en-1-yl O,O-dihydrogen phosphorothioate]?
**A.** effects on respiratory parameters (Male Sprague-Dawley rats [2]; 1.81 mg/kg): No statistically significant or biologically meaningful effects; increase in respiratory rates (Male Sprague-Dawley rats [2]; 6.33 mg/kg): 68%; reduction in tidal volume (Male Sprague-Dawley rats [2]; 6.33 mg/kg): 29%; respiratory values 24 hours post dose (Male Sprague-Dawley rats [2]; 6.33 mg/kg): essentially normal; increase in respiratory rates (Male Sprague-Dawley rats [2]; 18.1 mg/kg): 65%; reduction in tidal volume (Male Sprague-Dawley rats [2]; 18.1 mg/kg): 32%; respiratory values 24 hours post dose (Male Sprague-Dawley rats [2]; 18.1 mg/kg, reduced in magnitude): still showed effects; dose with no adverse effects on the respiratory system (Male Sprague-Dawley rats [2]; male, Sprague-Dawley, rat, in vivo, oral, 24 h): 1.81 mg/kg; Solubility in water [3]: soluble in water; Solubility in the simulated formulation solvent ([3]; 3% polyethylene glycol 200, 1% ethanol, 10 mM monosodium phosphate, balance water): soluble; Solubility in water ([3]; listed as L-Lysine salt): soluble; gastric emptying (Male Sprague-Dawley rats [4]; 6.33 and 18.1 mg/kg, statistically significant only at 6.33 mg/kg): inhibited; dose with no adverse effects on gastric emptying (Male Sprague-Dawley rats [4]; [7]): 1.81 mg/kg; dose with no adverse effects on transit time (Male Sprague-Dawley rats [4]; [7]): 6.33 mg/kg; intestinal transit time (Male Sprague-Dawley rats [4]; only at 18.1 mg/kg): increased; effects on body weights (cynomolgus monkeys; 10 mg/kg/day SC, 7 days): No effects; signs in repeated dose phase (cynomolgus monkeys; 10 mg/kg/day SC, 7 days): intermittent food consumption and adverse effects at the injection sites; clinical signs (cynomolgus monkeys; single SC dose 75 mg/kg): animals became hunched and were obviously in pain; treatment related effects (cynomolgus monkeys; single SC doses up to and including 25 mg/kg): no meaningful treatment related effects; Solubility, gravimetric method ([5]; EtOH:water (v/v) [1:1], 25° C.): Gelled; Solubility, gravimetric method ([5]; EtOH:water (v/v) [7:3], 25° C.): Gelled; Solubility, gravimetric method ([5]; EtOH:water (v/v) [7:3], 50° C.): Gelled; Solubility, gravimetric method ([5]; IPA:water (v/v) [7:3], 25° C.): Gelled; Solubility, gravimetric method ([5]; IPA:water (v/v) [7:3], 50° C.): Gelled; Solubility, gravimetric method ([5]; MeOH:water (v/v) [1:1], 25° C.): Gelled; Solubility, gravimetric method ([5]; MeOH:water (v/v) [7:3], 50° C.): Gelled; Solubility in most aqueous solvent systems [5, 8]: moderate to high solubility; Solubility in organic systems [5, 8]: limited solubility; solubility ([5]; aqueous with cosolvent or surfactant or cyclodextrin, EtOH:water (v/v) [1:1], 50° C.): > 68 mg/mL; solubility ([5]; aqueous with cosolvent or surfactant or cyclodextrin, EtOH:water (v/v) [3:7], 25° C.): > 40 mg/mL; solubility ([5]; aqueous with cosolvent or surfactant or cyclodextrin, EtOH:water (v/v) [3:7], 50° C.): > 84 mg/mL; solubility ([5]; aqueous with cosolvent or surfactant or cyclodextrin, IPA:water (v/v) [1:1], 25° C.): > 40 mg/mL; solubility ([5]; aqueous with cosolvent or surfactant or cyclodextrin, IPA:water (v/v) [1:1], 50° C.): > 86 mg/mL; solubility ([5]; aqueous with cosolvent or surfactant or cyclodextrin, IPA:water (v/v) [3:7], 25° C.): > 46 mg/mL; solubility ([5]; aqueous with cosolvent or surfactant or cyclodextrin, IPA:water (v/v) [3:7], 50° C.): > 70 mg/mL; solubility ([5]; aqueous with cosolvent or surfactant or cyclodextrin, MeOH:water (v/v) [1:1], 50° C.): > 80 mg/mL; solubility ([5]; aqueous with cosolvent or surfactant or cyclodextrin, MeOH:water (v/v) [3:7], 25° C.): > 48 mg/mL; solubility ([5]; aqueous with cosolvent or surfactant or cyclodextrin, MeOH:water (v/v) [3:7], 50° C.): > 86 mg/mL; solubility ([5]; aqueous with cosolvent or surfactant or cyclodextrin, MeOH:water (v/v) [7:3], 25° C.): 20 mg/mL (≈ 54.9 mM); solubility ([5]; organic solvent or mixture, EtOH, 50° C.): 3 mg/mL (≈ 8.23 mM); solubility ([5]; organic solvent or mixture, Heptane, 50° C.): 3 mg/mL (≈ 8.23 mM); solubility ([5]; organic solvent or mixture, IPA, 50° C.): 5 mg/mL (≈ 13.7 mM); solubility ([5]; organic solvent or mixture, MTBE, 50° C.): 4 mg/mL (≈ 11 mM); solubility ([5]; organic solvent or mixture, MeOH, 50° C.): 4 mg/mL (≈ 11 mM); solubility ([5]; Water, 25° C.): > 48 mg/mL; solubility ([5]; Water, 50° C.): > 76 mg/mL; Form by XRPD after short term slurry ([6]; listed as Rx100.L-Lysine salt): no change in form; Form by XRPD after short term slurry ([6]; listed as Rx100 crystalline sesqui-L-lysine salt): do not change in form
